Reference: patent publication US10947289B2, “Glyco-modified atrial natriuretic peptide” (priority 2013, dated 2021)
Like-named read-outs stand apart in the source and are kept apart here.

Assays:
[1] = Detection of test substance in rat plasma by LC-MS/MS (Test Example 3); format: in vivo; settings: rat plasma, 100 nmol/kg i.v., LC-MS/MS; time at which the test substance was finally detected
Description: Before the administration and 15, 30, 60, 90, 120, 180, and 240 minutes after the administration, blood was sampled (200 μL/sampling) over time from the jugular vein. The blood samples were immediately left on ice.
The collected blood samples were centrifuged at 5000 rpm at 4° C. for 5 minutes by use of a centrifuge (Sigma 4K15, rotor: Nr12130-H). The separated plasma samples were divided into two types (samples for PK measurement and for cGMP measurement) and stored at −80° C. until measurement.
An internal standard (20 μL (500 nM) of a stable isotope of hANP) and an acetic acid mixed solvent (AcOH/distilled water/DMSO=5/3/2, v/v/v) were added to 50 μL of each rat plasma sample prepared in (1) and then mixed therewith. The mixture was transferred to Amicon Ultra-0.5 50K (Millipore Corp., MA) and centrifuged at 14000 rpm at 15° C. for 30 minutes. The obtained filtrate was transferred to Amicon Ultra-0.5 3K (Millipore Corp., MA) and centrifuged again under the aforementioned conditions. The solution remaining on the filter was recovered and transferred to a 96-well deep well plate. The content of the test substance was measured by LC-MS/MS (LC: Shimadzu LC-10ADVP (Shimadzu Corp.), MS/MS: API 4000 QTrap (AB SCIEX)) to calculate the concentration in plasma. The time at which the test substance was finally detected is shown in the rightmost column of Table 2.

human GC-A = target: T1, human GC-A (Homo sapiens, UniProt P16066); test: cGMP elevating activity in CHO/human GC-A cells (Test Example 1); format: cell-based; settings: for Emax: maximum T/C in range 0.01-100 nM, solvent only = 0, 1 nM ANP = 1
T1 construct: expressed in transfected cells; host or cells: CHO cells
T1 sequence (P16066 33-1061): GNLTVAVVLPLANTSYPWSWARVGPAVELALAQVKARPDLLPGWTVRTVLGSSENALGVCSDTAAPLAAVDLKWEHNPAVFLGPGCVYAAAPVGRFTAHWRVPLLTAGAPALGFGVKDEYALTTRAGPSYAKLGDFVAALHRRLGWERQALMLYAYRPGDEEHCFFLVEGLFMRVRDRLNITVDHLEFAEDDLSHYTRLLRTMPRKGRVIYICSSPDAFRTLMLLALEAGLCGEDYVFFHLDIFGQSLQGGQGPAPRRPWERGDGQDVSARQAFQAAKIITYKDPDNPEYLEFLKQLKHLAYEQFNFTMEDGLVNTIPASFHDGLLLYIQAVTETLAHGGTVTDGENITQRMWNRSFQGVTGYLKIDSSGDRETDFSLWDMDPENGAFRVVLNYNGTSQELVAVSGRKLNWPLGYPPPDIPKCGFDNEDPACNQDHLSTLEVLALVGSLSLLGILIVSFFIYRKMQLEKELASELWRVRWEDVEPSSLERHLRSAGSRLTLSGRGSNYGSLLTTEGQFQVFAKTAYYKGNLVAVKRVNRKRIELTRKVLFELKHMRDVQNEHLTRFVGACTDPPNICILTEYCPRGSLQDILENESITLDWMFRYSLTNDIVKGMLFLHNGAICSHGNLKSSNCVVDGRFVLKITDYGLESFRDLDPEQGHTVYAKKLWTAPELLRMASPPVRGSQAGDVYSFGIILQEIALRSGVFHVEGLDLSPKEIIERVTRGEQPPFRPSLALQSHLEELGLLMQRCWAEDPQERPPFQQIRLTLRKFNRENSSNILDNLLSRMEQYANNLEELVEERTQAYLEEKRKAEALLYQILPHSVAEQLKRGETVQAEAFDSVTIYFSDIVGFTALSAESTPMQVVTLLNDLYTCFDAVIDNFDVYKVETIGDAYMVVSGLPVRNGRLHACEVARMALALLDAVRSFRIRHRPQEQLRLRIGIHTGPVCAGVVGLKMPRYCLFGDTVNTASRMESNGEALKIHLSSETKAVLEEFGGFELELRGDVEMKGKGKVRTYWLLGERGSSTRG
Summary of the method: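 cGMP in lysates was read by HTRF after a 15 min peptide exposure of GC-A-expressing CHO cells in a CO2 incubator, following 10 min room-temperature preincubation with 1.6 mM IBMX in KRB. T/C values were normalised between solvent wells (0) and 1 nM ANP wells (1).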

[2] = CHO/human GC-A cells, concentration at T/C=0.5, 15 minutes incubation, read-out: EC50

CC[C@H](C)[C@@H]1NC(=O)[C@H](CCCNC(=N)N)NC(=O)[C@H](CC(=O)O)NC(=O)[C@H](CCSC)NC(=O)[C@H](CCCNC(=N)N)NC(=O)CNC(=O)CNC(=O)[C@H](Cc2ccccc2)NC(=O)[C@@H](NC(=O)[C@H](CO)NC(=O)[C@H](CO)NC(=O)[C@H](CCCNC(=N)N)NC(=O)[C@H](CCCNC(=N)N)NC(=O)[C@H](CC(C)C)NC(=O)[C@H](CO)NC(=O)CO[C@@H]2O[C@H](CO)[C@@H](O[C@@H]3O[C@H](CO)[C@@H](O[C@@H]4O[C@H](CO[C@H]5O[C@H](CO)[C@@H](O)[C@H](O)[C@@H]5O[C@@H]5O[C@H](CO)[C@@H](O[C@@H]6O[C@H](CO[C@]7(C(=O)O)C[C@H](O)[C@@H](NC(C)=O)[C@H]([C@H](O)[C@H](O)CO)O7)[C@H](O)[C@H](O)[C@H]6O)[C@H](O)[C@H]5NC(C)=O)[C@@H](O)[C@H](O[C@H]5O[C@H](CO)[C@@H](O)[C@H](O)[C@@H]5O[C@@H]5O[C@H](CO)[C@@H](O[C@@H]6O[C@H](CO[C@]7(C(=O)O)C[C@H](O)[C@@H](NC(C)=O)[C@H]([C@H](O)[C@H](O)CO)O7)[C@H](O)[C@H](O)[C@H]6O)[C@H](O)[C@H]5NC(C)=O)[C@@H]4O)[C@H](O)[C@H]3NC(C)=O)[C@H](O)[C@H]2NC(C)=O)CSSC[C@@H](C(=O)N[C@@H](CC(N)=O)C(=O)N[C@@H](CO)C(=O)N[C@@H](Cc2ccccc2)C(=O)N[C@@H](CCCNC(=N)N)C(=O)N[C@@H](Cc2ccc(O)cc2)C(=O)O)NC(=O)CNC(=O)[C@H](CC(C)C)NC(=O)CNC(=O)[C@H](CO)NC(=O)[C@H](CCC(N)=O)NC(=O)[C@H](C)NC(=O)CNC1=O [Compound 2-1, SG-hANP(1-28)]
Maximum time of detection after administration [1]: 3 h

CC[C@H](C)[C@@H]1NC(=O)[C@H](CCCNC(=N)N)NC(=O)[C@H](CC(=O)O)NC(=O)[C@H](CCSC)NC(=O)[C@H](CCCNC(=N)N)NC(=O)CNC(=O)CNC(=O)[C@H](Cc2ccccc2)NC(=O)[C@@H](NC(=O)[C@H](CO)NC(=O)[C@H](CO)NC(=O)[C@H](CCCNC(=N)N)NC(=O)[C@H](CCCNC(=N)N)NC(=O)[C@H](CC(C)C)NC(=O)[C@H](CO)NC(=O)CO[C@@H]2O[C@H](CO)[C@@H](O[C@@H]3O[C@H](CO)[C@@H](O[C@@H]4O[C@H](CO[C@H]5O[C@H](CO)[C@@H](O)[C@H](O)[C@@H]5O[C@@H]5O[C@H](CO)[C@@H](O[C@@H]6O[C@H](CO)[C@H](O)[C@H](O)[C@H]6O)[C@H](O)[C@H]5NC(C)=O)[C@@H](O)[C@H](O[C@H]5O[C@H](CO)[C@@H](O)[C@H](O)[C@@H]5O[C@@H]5O[C@H](CO)[C@@H](O[C@@H]6O[C@H](CO)[C@H](O)[C@H](O)[C@H]6O)[C@H](O)[C@H]5NC(C)=O)[C@@H]4O)[C@H](O)[C@H]3NC(C)=O)[C@H](O)[C@H]2NC(C)=O)CSSC[C@@H](C(=O)N[C@@H](CC(N)=O)C(=O)N[C@@H](CO)C(=O)N[C@@H](Cc2ccccc2)C(=O)N[C@@H](CCCNC(=N)N)C(=O)N[C@@H](Cc2ccc(O)cc2)C(=O)O)NC(=O)CNC(=O)[C@H](CC(C)C)NC(=O)CNC(=O)[C@H](CO)NC(=O)[C@H](CCC(N)=O)NC(=O)[C@H](C)NC(=O)CNC1=O [Compound 2-10, AG(9)-hANP(1-28)]
Maximum time of detection after administration [1]: 1.5 h

CC[C@H](C)[C@@H]1NC(=O)[C@H](CCCNC(=N)N)NC(=O)[C@H](CC(=O)O)NC(=O)[C@H](CCSC)NC(=O)[C@H](CCCNC(=N)N)NC(=O)CNC(=O)CNC(=O)[C@H](Cc2ccccc2)NC(=O)[C@@H](NC(=O)[C@H](CO)NC(=O)[C@H](CO)NC(=O)[C@H](CCCNC(=N)N)NC(=O)[C@H](CCCNC(=N)N)NC(=O)[C@H](CC(C)C)NC(=O)[C@H](CO)NC(=O)CO[C@@H]2O[C@H](CO)[C@@H](O[C@@H]3O[C@H](CO)[C@@H](O[C@@H]4O[C@H](CO[C@H]5O[C@H](CO)[C@@H](O)[C@H](O)[C@@H]5O[C@@H]5O[C@H](CO)[C@@H](O)[C@H](O)[C@H]5NC(C)=O)[C@@H](O)[C@H](O[C@H]5O[C@H](CO)[C@@H](O)[C@H](O)[C@@H]5O[C@@H]5O[C@H](CO)[C@@H](O)[C@H](O)[C@H]5NC(C)=O)[C@@H]4O)[C@H](O)[C@H]3NC(C)=O)[C@H](O)[C@H]2NC(C)=O)CSSC[C@@H](C(=O)N[C@@H](CC(N)=O)C(=O)N[C@@H](CO)C(=O)N[C@@H](Cc2ccccc2)C(=O)N[C@@H](CCCNC(=N)N)C(=O)N[C@@H](Cc2ccc(O)cc2)C(=O)O)NC(=O)CNC(=O)[C@H](CC(C)C)NC(=O)CNC(=O)[C@H](CO)NC(=O)[C@H](CCC(N)=O)NC(=O)[C@H](C)NC(=O)CNC1=O [Compound 2-11, AG(7)-hANP(1-28)]
Maximum time of detection after administration [1]: 2 h

CC[C@H](C)[C@@H]1NC(=O)[C@H](CCCNC(=N)N)NC(=O)[C@H](CC(=O)O)NC(=O)[C@H](CCSC)NC(=O)[C@H](CCCNC(=N)N)NC(=O)CNC(=O)CNC(=O)[C@H](Cc2ccccc2)NC(=O)[C@@H](NC(=O)[C@H](CO)NC(=O)[C@H](CO)NC(=O)[C@H](CCCNC(=N)N)NC(=O)[C@H](CCCNC(=N)N)NC(=O)[C@H](CC(C)C)NC(=O)[C@H](CO)NC(=O)CNC(=O)CO[C@@H]2O[C@H](CO)[C@@H](O[C@@H]3O[C@H](CO)[C@@H](O[C@@H]4O[C@H](CO[C@H]5O[C@H](CO)[C@@H](O)[C@H](O)[C@@H]5O[C@@H]5O[C@H](CO)[C@@H](O[C@@H]6O[C@H](CO[C@]7(C(=O)O)C[C@H](O)[C@@H](NC(C)=O)[C@H]([C@H](O)[C@H](O)CO)O7)[C@H](O)[C@H](O)[C@H]6O)[C@H](O)[C@H]5NC(C)=O)[C@@H](O)[C@H](O[C@H]5O[C@H](CO)[C@@H](O)[C@H](O)[C@@H]5O[C@@H]5O[C@H](CO)[C@@H](O[C@@H]6O[C@H](CO[C@]7(C(=O)O)C[C@H](O)[C@@H](NC(C)=O)[C@H]([C@H](O)[C@H](O)CO)O7)[C@H](O)[C@H](O)[C@H]6O)[C@H](O)[C@H]5NC(C)=O)[C@@H]4O)[C@H](O)[C@H]3NC(C)=O)[C@H](O)[C@H]2O)CSSC[C@@H](C(=O)N[C@@H](CC(N)=O)C(=O)N[C@@H](CO)C(=O)N[C@@H](Cc2ccccc2)C(=O)N[C@@H](CCCNC(=N)N)C(=O)N[C@@H](Cc2ccc(O)cc2)C(=O)O)NC(=O)CNC(=O)[C@H](CC(C)C)NC(=O)CNC(=O)[C@H](CO)NC(=O)[C@H](CCC(N)=O)NC(=O)[C@H](C)NC(=O)CNC1=O [Compound 2-40, SG(Glc)-Gly-A-hANP(1-28)]
EC50 (human GC-A): 0.05 nM

SG2-(SG2-)Lys-[SG2-(SG2-)-Lys-]Lys-PEG(3)-hANP(1-28) [Compound 2-20]
EC50 (human GC-A; [2]): 64 nM | Emax (human GC-A): 0.59

[(SG2-)Cys-Gly]5-hANP(1-28) [Compound 2-18]
EC50 (human GC-A; [2]): 48 nM | Emax (human GC-A): 0.63

[(SG-)Cys-Gly]5-hANP(1-28) [Compound 2-17]
EC50 (human GC-A; [2]): 35 nM | Emax (human GC-A): 0.70
